Entries after “also recorded” stand apart in the source; their conditions may differ.
Experiments:
[1] = biological target: r(G4C2)8 and hnRNP H1 complex; experiment: TR-FRET hnRNP H binding assay; type: biochemical; details: inhibiting r(G4C2)8 and hnRNP H1 complex formation; 7 in the absence of Rnase L
Method: TR-FRET hnRNP H Binding Assay. TR-FRET assays were performed as previously described (12). The mixture was incubated for 15 min at room temperature and then hnRNP H1-His6 was added. After an additional 15 min incubation, streptavidin-XL665 (HTRF, Cisbio Bioassays) and anti-His6-Tb (HTRF, Cisbio Bioassays) were added to a final concentration of 40 nM and 0.44 ng/μL, respectively. After incubating for 1 h, TR-FRET was measured as previously described (12).

[2] = test system: r(G4C2)66-No ATG-GFP mRNA; experiment: RNA levels in transfected HEK293T cells by RT-qPCR; type: cell-based, human
Method: Measuring RNA Levels in HEK Cells. HEK293T cells were seeded at 2×10^6 in 100 mm dish and incubated at 37° C. overnight. Cells were transfected with 2.5 μg of the (G4C2)66-No ATG-GFP plasmid with Lipofectamine 3000 (Life Technologies) per the manufacturer's protocols. After 5 h, the cells were collected and split into 24-well plate with 5×10^4 cells per well. After 2 h, the compounds were added and incubated for another 24 h.
Total RNA was extracted using a Quick-RNA Miniprep Kit (Zymo Research) per the manufacturer's protocol. Approximately 1 μg of total RNA, as determined by Nanodrop, was used for reverse transcription using qScript Kit (Quantbio) per the manufacturer's protocol. RT-qPCR was performed on a 7900HT Fast Real Time PCR System (Applied Biosystem) using Power SYBR Green Master Mix (Applied Biosystems). Expression levels of mRNAs were normalized to β-actin.
Rnase L Knockdown. HEK293T cells were seeded in growth medium in a 100 mm dish and incubated at 37° C. until ˜80% confluent. Cells were transfected with 2.5 µg (G4C2)66-No-ATG-GFP for 5 h with Lipofectamine 3000 (Life Technologies) per the manufacturer's recommended protocol. Following transfection, the cells were plated in 6-well plates and incubated at 37° C. until ˜80% confluent. Compounds were added in growth medium and incubated for 24 h. Following compound treatment, the siRNA of interest (Table 3) were transfected with RNAiMax (Life Technologies) at a final concentration of 50 nM for 24 h per the manufacturer's recommended protocol. Total RNA was extracted using a Quick-RNA Miniprep Kit (Zymo Research) per the manufacturer's protocol. Intron 1 abundance was assessed by RT-qPCR as described above.

[3] = test system: Poly(GP); experiment: Poly(GP) by immunoassay in patient-derived iPSCs; type: cell-based, human; details: for Poly(GP) levels: iPSCs from c9ALS patients
Method: iPSCs were treated for 4 days in Matrigel (356234, Corning) coated plates with mTeSR™1 feeder-free medium ([…] Technologies; Catalog #85850). Cells were treated in 6-well plates on day 1 and 3 with compounds diluted in 0.1% final DMSO.
Measuring Poly(GP) Levels by Electrochemiluminescence. LCLs were seeded in T-25 flash at 400,000 cells/mL in 5 mL of growth medium. After overnight incubation, the cells were treated with compound or ASO for 4 days at 37° C. After the treatment period, the cells were pelleted, and total protein was extracted by incubating with CoIP2 Buffer (50 mM Tris-HCL, pH 7.4, 300 mM NaCl, 5 mM EDTA, 1% (v/v) Triton-X 100, 2% (w/v) sodium dodecyl sulfate, and 0.01% (v/v) protease and phosphatase inhibitors) on ice for 5 min and then sonication (3 s intervals at 35% power for ˜40 s). Detergent was then removed using Pierce™ Detergent Removal Spin Columns following manufacturer's protocol. Protein concentration was measured by Pierce™ BCA Protein Assay Kit.
Levels of poly(GP) were measured using Meso Scale Discovery MSD Gold 96-well Streptavidin SECTOR plates. Both capture and detection antibodies were generated using an anti-poly(GP) antibody kindly provided by the Target ALS Foundation. To serve as the capture antibody, the poly(GP) antibody was conjugated to biotin using EZ-Link™ Sulfo-NHS-LC-Biotin (Thermo Fisher) as per the manufacturer's protocol. To serve as the detection antibody, the poly(GP) antibody was sulfo-tagged using MSD GOLD SULFO-TAG NHS-Ester (Meso Scale Discovery) as per the manufacturer's protocol. The conjugated antibodies were desalted with 40K Zeba™ Spin Desalting Columns (Thermo Fisher Scientific), and their concentrations were determined by Pierce™ BCA Protein Assay Kit.
Briefly, the plates were incubated with 2 μg/ml of anti-poly(GP)-biotin antibody at 4° C. overnight. […] After washing with 150 μL of 1×TBST three times, 1×MSD GOLD Read Buffer was added to each well, and electrochemiluminescence was measured using a SECTOR Imager (MSD). […]

Compound | IC50 [1] [nM] | reduction of r(G4C2)exp-containing mRNA ([2]; 500 nM compound) [%] | ability to reduce r(G4C2)exp levels upon knock down of Rnase L by siRNA ([2]; RNase L siRNA versus control siRNA) | potency and duration of activity for reducing Poly(GP) abundance compared to parent compound 3 [3] | Poly(GP) levels [3] | r(G4C2)66 levels ([2]; HEK293T)
CCOC(=O)C1=C(Nc2ccccc2)S/C(=C\c2ccc(OCCOCCOCCOCCNC(=O)CCC(=O)N(CCOCCOCCOc3ccc4[nH]c5c(C)c6ccncc6c(C)c5c4c3)CCOCCOCCOc3ccc4[nH]c5c(C)c6ccncc6c(C)c5c4c3)c(O)c2)C1=O [Compound 7] | 2400 ± 100 | 46±2 | ablated | significant increase in potency and a prolonged period of activity; also recorded: significant (P<0.05) increase in potency and a prolonged duration of activity | significant reduction | –
Cc1c2ccncc2c(C)c2c1[nH]c1ccc(OCCOCCOCCNCCOCCOCCOc3ccc4[nH]c5c(C)c6ccncc6c(C)c5c4c3)cc12 [Compound 3] | 900 ± 100 | – | – | – | reduced Poly(GP) levels dose-dependently | without affecting

Reference: patent US20230381170A1, “METHOD FOR TREATING ALS/FTD THROUGH DEGRADATION OF RNA REPEAT EXPANSION” (University of Florida Research Foundation, Incorporated, priority 2020, published 2023)
